Test results from patent US10676431B2, “Phenylpyrrolidinone formyl peptide 2 receptor agonists” (BRISTOL-MYERS SQUIBB COMPANY, priority 2018, dated 2020).

Experiments:
human FPR1 = human FPR1 (Homo sapiens (Human), UniProt P21462); assay: FPR1 cyclic adenosine monophosphate (cAMP) assay; assay type: cell-based; details: CHO cells overexpressing human FPR1; forskolin 10 μM, IBMX 200 μM; inhibition of cAMP production, HTRF; read-out: hFPR1 cAMP EC50
Description: FPR2 and FPR1 Cyclic Adenosine Monophosphate (cAMP) Assays. A mixture of forskolin (5 μM final for FPR2 or 10 μM final for FPR1) and IBMX (200 μM final) were added to 384-well Proxiplates (Perkin-Elmer) pre-dotted with test compounds in DMSO (1% final) at final concentrations in the range of 0.020 nM to 100 μM. Chinese Hamster Ovary cells (CHO) overexpressing human FPR1 or human FPR2 receptors were cultured in F-12 (Ham's) medium supplemented with 10% qualified FBS, 250 μg/ml zeocin and 300 μg/ml hygromycin (Life Technologies). Reactions were initiated by adding 2,000 human FPR2 cells per well or 4,000 human FPR1 cells per well in Dulbecco's PBS (with calcium and magnesium) (Life Technologies) supplemented with 0.1% BSA (Perkin-Elmer). The reaction mixtures were incubated for 30 min at room temperature. The level of intracellular cAMP was determined using the HTRF HiRange cAMP assay reagent kit (Cisbio) according to manufacturer's instruction. Solutions of cryptate conjugated anti-cAMP and d2 fluorophore-labelled cAMP were made in a supplied lysis buffer separately. Upon completion of the reaction, the cells were lysed with equal volume of the d2-cAMP solution and anti-cAMP solution. […] The potency and activity of a compound to inhibit cAMP production was then determined by fitting to a 4-parametric logistic equation from a plot of cAMP level versus compound concentrations.

human FPR2 = human FPR2 (Homo sapiens (Human), UniProt P25090); assay: FPR2 cyclic adenosine monophosphate (cAMP) assay; assay type: cell-based; details: CHO cells overexpressing human FPR2; forskolin 5 μM, IBMX 200 μM; inhibition of cAMP production, HTRF; read-out: hFPR2 cAMP2 EC50
Description: FPR2 and FPR1 Cyclic Adenosine Monophosphate (cAMP) Assays. A mixture of forskolin (5 μM final for FPR2 or 10 μM final for FPR1) and IBMX (200 μM final) were added to 384-well Proxiplates (Perkin-Elmer) pre-dotted with test compounds in DMSO (1% final) at final concentrations in the range of 0.020 nM to 100 μM. Chinese Hamster Ovary cells (CHO) overexpressing human FPR1 or human FPR2 receptors were cultured in F-12 (Ham's) medium supplemented with 10% qualified FBS, 250 μg/ml zeocin and 300 μg/ml hygromycin (Life Technologies). Reactions were initiated by adding 2,000 human FPR2 cells per well or 4,000 human FPR1 cells per well in Dulbecco's PBS (with calcium and magnesium) (Life Technologies) supplemented with 0.1% BSA (Perkin-Elmer). The reaction mixtures were incubated for 30 min at room temperature. The level of intracellular cAMP was determined using the HTRF HiRange cAMP assay reagent kit (Cisbio) according to manufacturer's instruction. Solutions of cryptate conjugated anti-cAMP and d2 fluorophore-labelled cAMP were made in a supplied lysis buffer separately. Upon completion of the reaction, the cells were lysed with equal volume of the d2-cAMP solution and anti-cAMP solution. After a 1-h room temperature incubation, time-resolved fluorescence intensity was measured using the Envision (Perkin-Elmer) at 400 nm excitation and dual emission at 590 nm and 665 nm. A calibration curve was constructed with an external cAMP standard at concentrations ranging from 1 μM to 0.1 pM by plotting the fluorescent intensity ratio from 665 nm emission to the intensity from the 590 nm emission against cAMP concentrations. The potency and activity of a compound to inhibit cAMP production was then determined by fitting to a 4-parametric logistic equation from a plot of cAMP level versus compound concentrations.

Sequence of human FPR2 (P25090 whole entry): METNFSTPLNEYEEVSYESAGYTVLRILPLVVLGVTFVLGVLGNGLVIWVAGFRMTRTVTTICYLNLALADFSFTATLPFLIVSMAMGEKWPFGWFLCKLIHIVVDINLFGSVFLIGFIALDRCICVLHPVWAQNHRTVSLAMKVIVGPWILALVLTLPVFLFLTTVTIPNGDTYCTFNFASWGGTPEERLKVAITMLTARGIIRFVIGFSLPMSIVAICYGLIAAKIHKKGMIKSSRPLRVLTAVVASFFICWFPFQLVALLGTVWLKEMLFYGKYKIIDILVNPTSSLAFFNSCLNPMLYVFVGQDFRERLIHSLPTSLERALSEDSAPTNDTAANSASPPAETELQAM
Sequence of human FPR1 (P21462 whole entry): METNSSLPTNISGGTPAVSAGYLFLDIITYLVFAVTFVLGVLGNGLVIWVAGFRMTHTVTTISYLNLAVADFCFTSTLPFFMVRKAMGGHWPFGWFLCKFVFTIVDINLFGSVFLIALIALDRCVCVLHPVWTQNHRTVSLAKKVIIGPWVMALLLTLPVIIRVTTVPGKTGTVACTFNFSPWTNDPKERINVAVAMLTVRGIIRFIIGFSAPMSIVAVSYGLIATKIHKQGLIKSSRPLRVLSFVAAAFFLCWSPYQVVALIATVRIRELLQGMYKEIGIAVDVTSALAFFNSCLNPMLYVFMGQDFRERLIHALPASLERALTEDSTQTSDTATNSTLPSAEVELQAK

Row | EC50 (human FPR1) | EC50 (human FPR2) | Compound
1 | 3000 nM | 5.7 nM | CC1(C)CN(c2ccc(-c3ccccc3P(C)(C)=O)c(F)c2F)C(=O)[C@@H]1NC(=O)Nc1cnc(Cl)cn1 [Example 130]
2 | 230 nM | 0.68 nM | CS(=O)(=O)Nc1ccccc1-c1ccc(N2CC[C@@H](NC(=O)Nc3ccc(Cl)cc3F)C2=O)c(F)c1F [Example 5]
3 | 110 nM | 0.5 nM | CC(C)c1cc(-c2ccccc2NS(C)(=O)=O)ccc1N1CC[C@@H](NC(=O)Nc2ccc(Cl)cc2F)C1=O [Example 27]
4 | 260 nM | 0.53 nM | CP(C)(=O)c1ccccc1-c1ccc(N2CC[C@@H](NC(=O)Nc3ccc(Cl)cc3F)C2=O)c(F)c1F [Example 25, (R)-1-(4-chloro-2-fluorophenyl)-3-(1-(2′-(dimethylphosphoryl)-2,3-difluoro-[1,1′-biphenyl]-4-yl)-2-oxopyrrolidin-3-yl)urea]
5 | 1000 nM | 0.95 nM | CP(C)(=O)c1ccccc1-c1ccc(N2CC[C@@H](NC(=O)Nc3ccc(C(F)(F)F)cc3F)C2=O)c(F)c1F [Example 57, (R)-1-(1-(2′-(dimethylphosphoryl)-2,3-difluoro-[1,1′-biphenyl]-4-yl)-2-oxopyrrolidin-3-yl)-3-(2-fluoro-4-(trifluoromethyl)phenyl)urea]
6 | 2900 nM | 8.8 nM | CP(C)(=O)c1ccccc1-c1ccc(N2CC[C@@H](NC(=O)Nc3ccc(C(F)(F)F)cn3)C2=O)c(F)c1F [Example 64]
7 | 1500 nM | 10 nM | CS(=O)(=O)Nc1ccccc1-c1ccc(N2CC[C@@H](NC(=O)Nc3cnc(Cl)cn3)C2=O)c(F)c1F [Example 15]
8 | 2100 nM | 4.1 nM | CP(C)(=O)c1ccccc1-c1cc(F)c(N2CC[C@@H](NC(=O)Nc3ccc(C(F)(F)F)cc3F)C2=O)c(F)c1 [Example 76]
9 | > 10000 nM | 22 nM | CP(C)(=O)c1ccccc1-c1ccc(N2CC[C@@H](NC(=O)Nc3ncc(C(F)(F)F)cc3F)C2=O)c(F)c1F [Example 55]
10 | 200 nM | 0.43 nM | CS(=O)(=O)Nc1ccccc1-c1ccc(N2CC[C@@H](NC(=O)Nc3ccc(Cl)cc3)C2=O)c(F)c1F [Example 1, (R)—N-(4′-(3-(3-(4-Chlorophenyl)ureido)-2-oxopyrrolidin-1-yl)-2′,3′-difluoro-[1,1′-biphenyl]-2-yl)methanesulfonamide]
11 | 24 nM | 1 nM | CC1C[C@@H](NC(=O)Nc2ccc(C(F)(F)F)cc2F)C(=O)N1c1ccc(-c2cccnc2P(C)(C)=O)c(F)c1F (some centres unmarked) [Example 128]
12 | 1700 nM | 0.93 nM | CS(=O)(=O)Nc1ccccc1-c1ccc(N2CC[C@@H](NC(=O)Nc3c(F)cc(Cl)cc3F)C2=O)c(F)c1F [Example 4]
13 | > 10000 nM | 24 nM | CS(=O)(=O)Nc1ccccc1-c1ccc(N2CC[C@@H](NC(=O)Nc3ccc(C(F)(F)F)nc3)C2=O)cc1 [Example 20]
14 | 700 nM | 8.2 nM | CS(=O)(=O)Nc1ncccc1-c1ccc(N2CC[C@@H](NC(=O)Nc3ccc(Cl)cc3F)C2=O)c(F)c1F [Example 23]
15 | 5.8 nM | 11 nM | CP(C)(=O)c1ccccc1-c1ccc(N2CC[C@@H](NC(=O)Nc3ccc(Cl)cc3F)C2=O)c(C(F)F)c1F [Example 107]
16 | 350 nM | 0.57 nM | CC1(C)CN(c2ccc(-c3ccccc3P(C)(C)=O)c(F)c2F)C(=O)[C@@H]1NC(=O)Nc1ccc(Cl)cc1F [Example 103]
17 | 890 nM | 1.21 nM | CC1C[C@@H](NC(=O)Nc2ccc(C(F)(F)F)cc2F)C(=O)N1c1ccc(-c2ccccc2P(C)(C)=O)c(F)c1F (some centres unmarked) [Example 116]
18 | 430 nM | 4 nM | O=C(Nc1ccc(C(F)(F)F)cc1F)N[C@@H]1CCN(c2ccc(-c3ccccc3CO)c(F)c2F)C1=O [Example 31]
19 | 270 nM | 0.86 nM | CP(C)(=O)c1ccccc1-c1ccc(N2C(=O)[C@H](NC(=O)Nc3ccc(C(F)(F)F)cc3F)C[C@H]2CO)c(F)c1F [Example 114]

Row | EC50 (human FPR1) | EC50 (human FPR2) | Compound
20 | 61 nM | 2 nM | N#Cc1ccccc1-c1ccc(N2CC[C@@H](NC(=O)Nc3ccc(Cl)cc3)C2=O)c(F)c1F [Example 8]
21 | 270 nM | 2.9 nM | CP(C)(=O)c1ccccc1-c1ccc(N2CC[C@@H](NC(=O)Nc3ccc(C(F)(F)F)cc3F)C2=O)c(Cl)c1F [Example 98]
22 | 50 nM | 4.6 nM | CC(C)c1cc(-c2ccccc2S(C)(=O)=O)ccc1N1CC[C@@H](NC(=O)Nc2ccc(Cl)cc2F)C1=O [Example 40]
23 | 54 nM | 0.61 nM | CP(C)(=O)c1c(F)cccc1-c1ccc(N2CC[C@@H](NC(=O)Nc3ccc(C(F)(F)F)cc3F)C2=O)c(F)c1F [Example 72]
24 | 110 nM | 7.2 nM | O=C(Nc1ccc(C(F)(F)F)cc1F)N[C@@H]1CCN(c2ccc(-c3cccc4c3S(=O)(=O)NC4)c(F)c2F)C1=O [Example 97]
25 | 83 nM | 0.22 nM | COC[C@@H]1C[C@@H](NC(=O)Nc2ccc(Cl)cc2F)C(=O)N1c1ccc(-c2ccccc2P(C)(C)=O)c(F)c1F [Example 30]
26 | 57 nM | 0.58 nM | CS(=O)(=O)c1ccccc1-c1ccc(N2C(=O)[C@H](NC(=O)Nc3ccc(C(F)(F)F)cc3F)C[C@H]2CO)c(F)c1F [Example 39]
27 | 25 nM | 4.4 nM | CP(C)(=O)c1ccccc1-c1ccc(N2CC[C@@H](NC(=O)Nc3ccc(C(F)(F)F)cc3F)C2=O)c(F)c1C1CC1 [Example 89, (R)-1-(1-(2-Cyclopropyl-2′-(dimethylphosphoryl)-3-fluoro-[1,1′-biphenyl]-4-yl)-2-oxopyrrolidin-3-yl)-3-(2-fluoro-4-(trifluoromethyl)phenyl)urea]
28 | 500 nM | 3.6 nM | O=C(Nc1ccc(C(F)(F)F)cc1)N[C@@H]1CCN(c2ccc(-c3ccccc3CO)c(F)c2F)C1=O [Example 41]
29 | 140 nM | 3 nM | CC(C)c1cc(-c2ccccc2P(C)(C)=O)ccc1N1CC[C@@H](NC(=O)Nc2ccc(Cl)cc2F)C1=O [Example 45]
30 | 20 nM | 0.077 nM | CP(C)(=O)c1c(F)cccc1-c1ccc(N2CC[C@@H](NC(=O)Nc3ccc(Cl)cc3F)C2=O)c(F)c1F [Example 70]
31 | 140 nM | 2.2 nM | CP(C)(=O)c1ncccc1-c1ccc(N2CC[C@@H](NC(=O)Nc3ccc(Cl)cc3F)C2=O)c(F)c1F [Example 74]
32 | 5000 nM | 22 nM | CP(C)(=O)c1ccccc1-c1ccc(N2CC[C@@H](NC(=O)Nc3ccc(OC(F)(F)F)cc3F)C2=O)c(F)c1F [Example 69]
33 | 250 nM | 0.91 nM | CS(=O)(=O)Nc1ccccc1-c1ccc(N2CC[C@@H](NC(=O)Nc3ccc(Cl)cc3F)C2=O)c(F)c1 [Example 32]
34 | > 10000 nM | 12 nM | CP(C)(=O)c1ccccc1-c1ccc(N2CC(CO)[C@@H](NC(=O)Nc3ccc(Cl)cc3F)C2=O)c(F)c1F (some centres unmarked) [Example 126]
35 | 450 nM | 2.5 nM | CC(N)c1cccc(-c2ccc(N3CC[C@@H](NC(=O)Nc4ccc(Cl)cc4)C3=O)c(F)c2F)c1 (some centres unmarked) [Example 12]
36 | 370 nM | 23 nM | CC(C)c1cc(-c2ccccc2P(C)(C)=O)ccc1N1CC[C@@H](NC(=O)Nc2ncc(Cl)cc2F)C1=O [Example 61]
37 | 720 nM | 31 nM | CP(C)(=O)c1ccccc1-c1ccc(N2CC[C@@H](NC(=O)Nc3cnc(Cl)cn3)C2=O)c(C2CC2)c1 [Example 62]
